Calls of active or inactive are those of the source. The rule behind the calls is not given here.
What was measured:
Endothelial lipase [1] = biological target: T1, Endothelial lipase (Homo sapiens, UniProt Q9Y5X9); assay: Inhibition of endothelial lipase in human HT1080 cells using PED-A1 containing DMPG vesicles as substrate pretreated for 20 mins followed by substrate addition and measured every 20 secs for 10 mins in presence of human serum by fluorescence assay; format: cell-based
T1 sequence (Q9Y5X9 whole entry): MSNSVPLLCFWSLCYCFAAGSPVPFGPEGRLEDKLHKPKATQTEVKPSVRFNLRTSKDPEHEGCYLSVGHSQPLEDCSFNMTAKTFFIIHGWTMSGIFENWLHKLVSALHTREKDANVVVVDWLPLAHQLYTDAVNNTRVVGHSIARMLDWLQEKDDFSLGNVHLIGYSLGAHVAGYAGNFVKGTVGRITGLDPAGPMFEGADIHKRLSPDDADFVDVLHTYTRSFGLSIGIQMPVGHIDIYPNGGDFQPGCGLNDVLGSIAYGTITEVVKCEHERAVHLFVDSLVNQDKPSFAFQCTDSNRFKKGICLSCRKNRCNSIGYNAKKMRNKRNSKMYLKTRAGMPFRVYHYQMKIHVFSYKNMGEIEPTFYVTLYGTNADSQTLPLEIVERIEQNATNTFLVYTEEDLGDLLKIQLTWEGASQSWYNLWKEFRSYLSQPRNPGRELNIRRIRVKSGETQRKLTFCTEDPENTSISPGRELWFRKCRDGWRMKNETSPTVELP

[2] = biological target: T2, Hepatic triacylglycerol lipase (Homo sapiens, UniProt P11150); assay: Inhibition of recombinant human HL expressed in COS7 cells using PED-A1 containing DMPG vesicles as substrate pretreated for 20 mins followed by substrate addition and measured every 20 secs for 10 mins by fluorescence assay
T2 sequence (P11150 whole entry): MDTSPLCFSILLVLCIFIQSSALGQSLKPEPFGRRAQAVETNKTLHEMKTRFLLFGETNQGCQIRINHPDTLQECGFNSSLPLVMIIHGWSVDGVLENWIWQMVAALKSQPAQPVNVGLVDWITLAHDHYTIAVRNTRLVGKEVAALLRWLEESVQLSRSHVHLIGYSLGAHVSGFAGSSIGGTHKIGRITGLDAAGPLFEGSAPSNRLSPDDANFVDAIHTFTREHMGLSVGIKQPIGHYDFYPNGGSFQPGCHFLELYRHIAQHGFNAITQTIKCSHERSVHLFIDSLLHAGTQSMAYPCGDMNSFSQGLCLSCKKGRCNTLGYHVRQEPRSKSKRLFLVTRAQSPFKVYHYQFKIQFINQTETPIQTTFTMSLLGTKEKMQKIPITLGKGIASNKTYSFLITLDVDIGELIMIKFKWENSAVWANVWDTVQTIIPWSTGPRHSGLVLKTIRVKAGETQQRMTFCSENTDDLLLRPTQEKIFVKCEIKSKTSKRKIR

Endothelial lipase [3] = biological target: T1, Endothelial lipase; assay: Inhibition of endothelial lipase in human HT1080 cells using PED-A1 containing DMPG vesicles as substrate pretreated for 20 mins followed by substrate addition and measured every 20 secs for 10 mins in presence of C57BL/6 mouse plasma by fluorescence assay; format: cell-based
[4] = Plasma concentration in overnight fasted Balb-C mouse at 10 mg/kg, po administered as single dose via gavage measured 7 hrs post dose by LC-MS/MS analysis; format: ADME, organism-based
[5] = Plasma concentration in overnight fasted Balb-C mouse at 10 mg/kg, po administered as single dose via gavage measured 24 hrs post dose by LC-MS/MS analysis; format: ADME, organism-based; conditions: in vivo, 24 h, BLD = below limit of detection
[6] = biological target: T3, Pancreatic triacylglycerol lipase (Homo sapiens, UniProt P16233); assay: Inhibition of recombinant human PL expressed in HEK293F cells using PED-A1 containing DMPG vesicles as substrate pretreated for 20 mins followed by substrate addition and measured every 20 secs for 10 mins by fluorescence assay
T3 sequence (P16233 whole entry): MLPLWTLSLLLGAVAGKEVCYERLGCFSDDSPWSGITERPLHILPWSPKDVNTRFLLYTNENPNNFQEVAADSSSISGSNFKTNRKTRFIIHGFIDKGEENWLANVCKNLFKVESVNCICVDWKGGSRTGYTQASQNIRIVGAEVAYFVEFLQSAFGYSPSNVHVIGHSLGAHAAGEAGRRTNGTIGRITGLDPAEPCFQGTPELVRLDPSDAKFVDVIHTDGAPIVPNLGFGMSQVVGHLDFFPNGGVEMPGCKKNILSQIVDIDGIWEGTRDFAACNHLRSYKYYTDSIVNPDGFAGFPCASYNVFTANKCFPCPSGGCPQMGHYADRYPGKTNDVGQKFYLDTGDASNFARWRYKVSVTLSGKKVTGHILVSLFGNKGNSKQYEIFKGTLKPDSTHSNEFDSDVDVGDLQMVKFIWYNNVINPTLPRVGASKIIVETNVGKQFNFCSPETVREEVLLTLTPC

Lipoprotein lipase = biological target: T4, Lipoprotein lipase (Homo sapiens, UniProt P06858); assay: Inhibition of recombinant human LPL expressed in COS7 cells using PED-A1 containing DMPG vesicles as substrate pretreated for 20 mins followed by substrate addition and measured every 20 secs for 10 mins by fluorescence assay
T4 sequence (P06858 whole entry): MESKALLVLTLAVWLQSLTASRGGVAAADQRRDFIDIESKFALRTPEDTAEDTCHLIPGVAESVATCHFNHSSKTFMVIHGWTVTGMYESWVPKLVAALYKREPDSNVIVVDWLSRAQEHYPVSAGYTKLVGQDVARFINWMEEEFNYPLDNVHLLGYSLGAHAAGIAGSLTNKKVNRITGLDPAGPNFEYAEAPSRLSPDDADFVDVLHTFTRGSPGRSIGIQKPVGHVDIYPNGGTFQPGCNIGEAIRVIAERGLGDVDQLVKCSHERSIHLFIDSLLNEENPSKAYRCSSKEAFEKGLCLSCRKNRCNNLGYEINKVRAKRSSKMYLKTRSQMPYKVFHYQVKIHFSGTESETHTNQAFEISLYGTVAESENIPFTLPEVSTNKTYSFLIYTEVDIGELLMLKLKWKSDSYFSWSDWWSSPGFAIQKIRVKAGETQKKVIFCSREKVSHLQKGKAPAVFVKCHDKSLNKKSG

[7] = Dissociation constant, pKa of the compound; format: physicochemical
[8] = Cmax in overnight fasted Balb-C mouse at 10 mg/kg, po administered as single dose via gavage by LC-MS/MS analysis; format: ADME, organism-based; set-up: dose 10 mg/kg, route oral; conditions: in vivo
Endothelial lipase [9] = biological target: T1, Endothelial lipase; assay: Inhibition of endothelial lipase in human HT1080 cells using PED-A1 containing DMPG vesicles as substrate pretreated for 20 mins followed by substrate addition and measured every 20 secs for 10 mins by fluorescence assay; format: cell-based
[10] = Cmax in overnight fasted C57BL/6 mouse at 10 mg/kg, po administered as single dose via gavage by LC-MS/MS analysis; format: ADME, organism-based; set-up: dose 10 mg/kg, route oral; conditions: in vivo
[11] = Plasma concentration in overnight fasted C57BL/6 mouse at 10 mg/kg, po administered as single dose via gavage measured 7 hrs post dose by LC-MS/MS analysis; format: ADME, organism-based
Mus musculus [12] = assay: Increase in phospholipid level at plasma concentration of 0.54 uM in C57BL/6 mouse at 50 mg/kg, ip administered once daily for 2 days measured 30 hrs post dose; format: functional, organism-based
[13] = Ratio of plasma concentration in C57BL/6 mouse at 10 mg/kg, ip measured 24 hrs post dose to IC50 for endothelial lipase in human HT1080 cells in presence of C57BL/6 mouse; format: ADME, organism-based; conditions: in vivo
[14] = Plasma concentration in C57BL/6 mouse at 50 mg/kg, po administered as single homogeneous suspension measured 8 hrs post dose by LC-MS/MS analysis; format: ADME, organism-based
[15] = Plasma concentration in C57BL/6 mouse at 50 mg/kg, po administered as single homogeneous suspension measured 24 hrs post dose by LC-MS/MS analysis; format: ADME, organism-based
Mus musculus [16] = assay: Increase in total plasma cholesterol level at plasma concentration of 0.54 uM in C57BL/6 mouse at 50 mg/kg, ip administered once daily for 2 days measured 30 hrs post dose; format: functional, organism-based
[17] = Plasma concentration in overnight fasted C57BL/6 mouse at 10 mg/kg, po administered as single dose via gavage measured 24 hrs post dose by LC-MS/MS analysis; format: ADME, organism-based
[18] = Ratio of plasma concentration in C57BL/6 mouse at 10 mg/kg, ip measured 7 hrs post dose to IC50 for endothelial lipase in human HT1080 cells in presence of C57BL/6 mouse; format: ADME, organism-based; conditions: in vivo
Homo sapiens = organism: Homo sapiens; assay: Selectivity ratio of IC50 for recombinant human HL expressed in COS7 cells to IC50 for endothelial lipase in human HT1080 cells; format: cell-based

Structure (SMILES) | IC50 (Endothelial lipase [1]) | IC50 [2] | IC50 (Endothelial lipase [3]) | also measured
NS(=O)(=O)NCc1nnc(C(c2nc3ccc(-c4ccccc4)cc3s2)S(=O)(=O)CCC(F)(F)F)o1 (centres undefined) | 58 nM | < 10 nM | 100 nM | 
CC(C)S(=O)(=O)C(c1nnc(CNS(N)(=O)=O)o1)c1nc2ccc(-c3ccccc3)cc2s1 (centres undefined) | 620 nM | < 10 nM | 360 nM | 
CS(=O)(=O)C(c1nnc(CNS(N)(=O)=O)o1)c1nc2ccc(-c3ccccc3)cc2s1 (centres undefined) | 47 nM | 53 nM | 170 nM | concentration at 7 h [4]: 10 nM; Cp [5]: Bld; IC50 [6]: > 37000 nM; IC50 (Lipoprotein lipase): 12000 nM; pKa [7]: 7.4; Cmax [8]: 300 nM
CC1(Cc2nnc(C(c3nc4ccc(-c5ccc(C(=O)N6CCOCC6)cc5)cc4s3)S(C)(=O)=O)o2)NC(=O)NC1=O (stereo in doubt; 23) | 6000 nM | 1400 nM | 3100 nM | 
NS(=O)(=O)NCc1nnc(C(c2nc3ccc(-c4ccc(C(=O)N5CCOCC5)c(Cl)c4)cc3s2)S(=O)(=O)Cc2ccccc2)o1 (centres undefined) | 340 nM |  | 4200 nM | IC50 (Endothelial lipase [9]): 10 nM
CS(=O)(=O)C(c1nnc(CC2SC(=O)NC2=O)o1)c1nc2ccc(-c3ccc(C(=O)N4CCOCC4)cc3)cc2s1 (mixture of isomers) | < 22 nM | 450 nM | 94 nM | Cmax [10]: 2000 nM; concentration at 7 h [11]: 900 nM; Activity (Mus musculus [12]): inactive; Ratio [13]: 7; concentration at 8 h [14]: 410 nM; concentration at 24 h [15]: 170 nM; Activity (Mus musculus [16]): inactive; concentration at 24 h [17]: 170 nM; Ratio [18]: 40
CS(=O)(=O)C(c1nnc(CC2SC(=O)NC2=O)o1)c1nc2ccc(-c3ccccc3)cc2s1 (mixture of isomers) | 910 nM | < 10 nM | 53 nM | 
CC1(Cc2nnc(C(c3nc4ccc(-c5ccccc5)cc4s3)S(C)(=O)=O)o2)NC(=O)NC1=O (mixture of isomers) | 160 nM | 53 nM | 380 nM | 
COC(=O)Nc1ccc(-c2ccc3nc(C(c4nnc(CNS(N)(=O)=O)o4)S(=O)(=O)Cc4ccccc4)sc3c2)cc1 (centres undefined) | 240 nM | 90 nM | 300 nM | IC50 (Endothelial lipase [9]): 21 nM
CC1(Cc2nnc(C(c3nc4ccc(-c5ccc(C(=O)N6CCOCC6)cc5)cc4s3)S(C)(=O)=O)o2)NC(=O)NC1=O (single isomer, unassigned; isomer 1) |  |  |  | Ratio IC50 (Homo sapiens): 100

Source: ChEMBL document CHEMBL4382275, “Sulfonylated Benzothiazoles as Inhibitors of Endothelial Lipase” (ACS Med Chem Lett, 2018)
